Reference: paper PMC12648656, “Palladium(II) Complexes with Noncovalent Interactions with DNA: Solution Speciation Controlled by Solvent Identity, pH, and Concentration” (Inorganic Chemistry, 2025)

How the values were obtained:
[1] = target: T1, hen egg white lysozyme (HEWL) (Gallus gallus, UniProt P00698); design: method as in not given; conditions: reported under the same conditions; ref not given; cited from earlier work
T1 construct: a model protein, namely HEWL (hen egg white lysozyme), was also studied; from tissue; host or cells: hen egg white (from the protein's name)

pBR322 plasmid DNA = test: Agarose gel electrophoresis mobility shift; type: binding; conditions: r i 0.01 to 0.20, 24 h, 37 °C
Protocol: Complexes (2) and (3) were incubated at 37 °C with a concentration of 0.0625 μg/μL pBR322 plasmid DNA at different concentrations expressed as r i = complex:DNA (base pair) ratio. The r i used was from 0.01 to 0.20, in a total volume of 20 μL. After an incubation period of 24 h, the mobility of the complex-treated pBR322 samples was analyzed by gel electrophoresis at 70 V in Tris/acetate/EDTA buffer. A control of pBR322 was also incubated, and a 1 kb ladder aliquot was loaded into lane 1 of the gel. The gel was stained with an ethidium bromide aqueous solution, and DNA bands were visualized with a UV-transilluminator UVITEC Cambridge UVIDOC HD2 instrument. The studies were performed with 3% (v/v) DMSO as the final solution.

calf thymus-DNA (CT-DNA) = test: Viscometry with CT-DNA; type: binding; conditions: compound/DNA ratios 0.0 to 1.0; 5 mM Tris, 100 mM NaCl, pH 7.40, 25.0 °C
Protocol: […] Then, the samples were incubated at 37 °C and with constant shaking at 300 rpm for 10 min and 1 h. After each incubation, the viscosity was measured at a constant temperature of 25.0 ± 0.2 °C in a vibrational viscometer. The relative viscosity was calculated by taking the mean values of three replicate measurements, and the values were represented by plotting the values of relative viscosity of CT-DNA (η/η0)^1/3 against 1/R.

[2] = tested on: Colo 205 human colon cancer cell line; design: method as in marks after cisplatin lost in b83 (probably 43, 44); conditions: Colo 205, 72 h exposure; ref marks after cisplatin lost in b83 (probably 43, 44); cited from earlier work
[3] = tested on: MCF7 human breast cancer cell line; design: method as in marks after cisplatin lost in b83 (probably 43, 44); conditions: MCF7, 72 h exposure; ref marks after cisplatin lost in b83 (probably 43, 44); cited from earlier work

T1 sequence (P00698 19-147): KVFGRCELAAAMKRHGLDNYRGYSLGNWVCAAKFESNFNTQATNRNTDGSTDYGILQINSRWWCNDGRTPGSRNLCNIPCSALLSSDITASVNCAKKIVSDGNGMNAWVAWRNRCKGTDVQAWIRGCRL

N.N.[Cl][Pt][Cl] [Cisplatin]
observed rate constant k obs [1]: 1.98 × 10^–4 s^–1 | effect on electrophoretic mobility of pBR322 (two forms, SC and OC) (pBR322 plasmid DNA): changes in the mobility of the pBR322 isoforms | effect on relative viscosity of CT-DNA (calf thymus-DNA (CT-DNA)): relative viscosity of the solution decreases | IC50 [2]: 23 ± 1 µM | IC50 [3]: 15 ± 0.01 µM
